Experimental findings from ChEMBL document CHEMBL5096191 (J Med Chem, 2021) are described below.

Holding throughout (assay type): functional, cell-based
In assay [1] the target is T1, Cannabinoid receptor 2 (Homo sapiens, UniProt P34972). Put plainly: Positive allosteric modulation of JWH-133-induced agonist activity at wild type CB2 receptor (unknown origin) stably expressed in HEK293T cells assessed as inhibition of forskolin-stimulated cAMP levels preincubated for 15 mins followed by forskolin addition incubated for 15 mins by HTRF assay relative to control. The settings on record: filed as positive allosteric modulator, time 30.0 min. On the technique in general: Changes in cAMP serve as a functional read-out for many G protein-coupled receptors.

Assay [2] has as its target T1, Cannabinoid receptor 2. The assay is described as follows: Positive allosteric modulation of JWH-133-induced agonist activity at wild type CB2 receptor (unknown origin) stably expressed in HEK293T cells assessed as inhibition of forskolin-stimulated cAMP levels preincubated for 15 mins followed by forskolin addition incubated for 15 mins by HTRF assay.
The target in assay [3] is T1, Cannabinoid receptor 2. The assay is described as follows: Negative allosteric modulation of JWH-133-induced agonist activity at wild type CB2 receptor (unknown origin) stably expressed in HEK293T cells assessed as decrease in cAMP levels preincubated for 15 mins followed by forskolin addition incubated for 15 mins by HTRF assay relative to JWH-133. Particulars: time 30.0 min.

The target in assay [4] is T1, Cannabinoid receptor 2. The assay is described as follows: Positive allosteric modulation of JWH-133-induced agonist activity at wild type CB2 receptor (unknown origin) stably expressed in HEK293T cells assessed as decrease in cAMP levels preincubated for 15 mins followed by forskolin addition incubated for 15 mins by HTRF assay relative to JWH-133. Particulars: filed as positive allosteric modulator, time 30.0 min.

The target of assay [5] is T1, Cannabinoid receptor 2. The assay is described as follows: Partial agonist activity at wild type CB2 receptor (unknown origin) expressed in HEK293T assessed as increase in ERK1/2 phosphorylation incubated for 7 mins by AlphaScreenSureFire method relative to control. Particulars: filed as partial agonist.
For assay [6], the target named is T1, Cannabinoid receptor 2. Put plainly: Partial agonist activity at wild type CB2 receptor (unknown origin) stably expressed in HEK293T assessed as decrease in forskolin induced cAMP level preincubated for 15 mins followed by forskolin addition incubated for 15 mins by HTRF assay relative to control. The settings on record: filed as partial agonist, time 30.0 min.

Assay [7] addresses T1, Cannabinoid receptor 2. Put plainly: Partial agonist activity at wild type CB2 receptor (unknown origin) expressed in HEK293T assessed as increase in picometer shifts of reflected light wavelengths by DMR assay relative to control. The settings on record: filed as partial agonist.
The subject of assay [8] is Cannabinoid receptor 2 (Homo sapiens), P34972 [V113M]. Put plainly: Partial agonist activity at CBR2 V1133.32M mutant (unknown origin) expressed in HEK293T assessed as increase in ERK1/2 phosphorylation incubated for 7 mins by AlphaScreenSureFire method relative to control. The settings on record: filed as partial agonist.
For assay [9] the test system is unchanged. Put plainly: Partial agonist activity at CBR2 V1133.32M mutant (unknown origin) expressed in HEK293T assessed as increase in picometer shifts of reflected light wavelengths by DMR assay relative to control.
Assay [10] shares this test system. The assay is described as follows: Partial agonist activity at CBR2 V1133.32M mutant (unknown origin) stably expressed in HEK293T assessed as decrease in forskolin induced cAMP level preincubated for 15 mins followed by forskolin addition incubated for 15 mins by HTRF assay relative to control. The settings on record: filed as partial agonist, time 30.0 min.

Chain of Cannabinoid receptor 2 (Homo sapiens), P34972 [V113M] (P34972 whole entry V113M): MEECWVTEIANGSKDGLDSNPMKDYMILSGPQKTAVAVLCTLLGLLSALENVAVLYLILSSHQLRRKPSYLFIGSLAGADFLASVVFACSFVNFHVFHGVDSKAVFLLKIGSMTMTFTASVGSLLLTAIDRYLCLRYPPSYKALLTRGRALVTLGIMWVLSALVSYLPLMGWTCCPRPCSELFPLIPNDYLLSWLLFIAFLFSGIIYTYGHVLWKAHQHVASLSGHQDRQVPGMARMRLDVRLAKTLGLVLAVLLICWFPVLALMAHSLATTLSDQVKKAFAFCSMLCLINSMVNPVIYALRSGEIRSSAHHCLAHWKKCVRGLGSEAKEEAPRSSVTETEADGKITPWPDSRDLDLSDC
T1 sequence (P34972 whole entry): as the sequence (P34972 whole entry V113M) above, with M113V counted along it

As a reminder, the Emax is the greatest response seen or fitted, relative to the assay's reference. A word on the EC50: it is the concentration that produces a half-maximal response. As for `C=C(C)[C@@H]1CCC(C)=C[C@H]1c1c(O)cc(CCCCCC)cc1O`, on Cannabinoid receptor 2 [1], the Emax worked out at 83.5%. At Cannabinoid receptor 2 [2], the EC50 was 126 nM. At Cannabinoid receptor 2 [3], the %max is 38%.

Regarding `C=C(C)[C@@H]1CCC(C)=C[C@H]1c1c(O)cc(CC)cc1O`, the maximal effect (Emax) on Cannabinoid receptor 2 [1] worked out at 45.3%. Also, the half-maximal effective concentration (EC50) at Cannabinoid receptor 2 [2] is 31.6 nM. At Cannabinoid receptor 2 [4], the %max was determined as 124%.

Take `C=C(C)[C@@H]1CCC(C)=C[C@H]1c1c(O)cc(CCC)cc1O` [CANNABIDIVARIN]: the maximum response (Emax) at Cannabinoid receptor 2 [1] worked out at 48%. At Cannabinoid receptor 2 [2], the half-maximal effective concentration (EC50) was 12.6 nM. In addition, at Cannabinoid receptor 2 [4], the %max worked out at 118%.

Turning to `C=C(C)[C@@H]1CCC(C)=C[C@H]1c1c(O)cc(CCCCC)cc1O`, the Emax at Cannabinoid receptor 2 [1] was determined as 67.8%; at Cannabinoid receptor 2 [5] it was 156%; at Cannabinoid receptor 2 [6], 74%; at Cannabinoid receptor 2 [7], 49.1%; in [8], 186%; in assay [9], 5.3%. For the same compound, the Emax in [10] came to 89.1%.

In the case of `C=C(C)[C@@H]1CCC(C)=C[C@H]1c1c(O)cc(CCCC)cc1O`, the maximal response (Emax) on Cannabinoid receptor 2 [1] was 64.1%. In addition, the half-maximal effective concentration (EC50) on Cannabinoid receptor 2 [2] was 200 nM. Moreover, on Cannabinoid receptor 2 [3] (filed as negative allosteric modulator), the %max was determined as 82%.
